Data taken from article PMC9995496, “A screen for MeCP2-TBL1 interaction inhibitors using a luminescence-based assay” (Scientific Reports, 2023).
Structures can show the parent of a compound that is named as a salt. Ends that are not written are not given here.

Tested on: PRKACA-PRKAR2A interaction (SmBiT-PRKACA / LgBiT-PRKAR2A), protein kinase A
Set-up: NanoLuc complementation counter-screen in cell extract, PRKACA with PRKAR2A, loss of luminescence, detects NanoLuc interference
Details: 0.5 h, 20 µM; inhibitor

| Compound | Inh (PKA) |
| --- | --- |
| COc1ccc(N(C(=O)Oc2c(C)cccc2C)c2ccnc(Nc3ccc(N4CCN(C)CC4)cc3)n2)c(OC)c1 [UM0142819:01, WH-4-023] | 37.82% |
| CC(C)OC(=O)[C@H](C)N[P@](=O)(CO[C@H](C)Cn1cnc2c(N)ncnc21)Oc1ccccc1 [UM0142821:01, GS-7340] | 0.4788 |
| COC1=C[C@@H]2[C@@H]3Cc4ccc(OC)c(O)c4[C@]2(CCN3C)CC1=O [UM0142862:01, Sinomenine Hydrochloride] | 0.8653% |

Same assay, conditions: counter-screen for NanoLuc interference, 0.5 h, 20 µM, inhibitor, Inh (PKA)

| Compound | Inh (PKA) |
| --- | --- |
| N[C@@H](CC(=O)N1CCn2c(nnc2C(F)(F)F)C1)Cc1cc(F)c(F)cc1F [UM0142834:01, Sitagliptin (phosphate)] | -0.1445% |

Same assay, conditions: counter-screen for NanoLuc interference; 0.5 h, 20 µM; inhibitor

| Compound | Inh (PKA) |
| --- | --- |
| Nc1ccc(C(=O)O)cc1 [UM0142813:01, 4-Aminobenzoic acid] | -1.147% |
| O[C@H]1[C@H](O)[C@@H](O)[C@H](O)[C@@H](O)[C@H]1O [UM0142814:01, myo-Inositol] | -0.9273% |
| CCCCCCCCCCCCCC(=S)NCCCC[C@H](NC(=O)OCc1ccccc1)C(=O)Nc1ccccc1 [UM0142815:01, Thiomyristoyl] | -1.991% |
| CC(C)(O)c1coc(S(=O)(=O)NC(=O)Nc2c3c(cc4c2CCC4)CCC3)c1 [UM0142816:01, MCC950 sodium] | -1.906% |
| Cc1c(CN2CCN(S(C)(=O)=O)CC2)sc2c(N3CCOCC3)nc(-c3cnc(N)nc3)nc12 [UM0142817:01, GNE-477] | 0.346% |
| CCCCNc1ncc2c(-c3ccc(CN4CCN(C)CC4)cc3)cn([C@H]3CC[C@H](O)CC3)c2n1 [UM0142820:01, UNC2025] | 23.55% |
| CCS(=O)(=O)N1CCN(c2ccc(Nc3ncc(C(N)=O)c(NC4CC4)n3)cc2)CC1 [UM0142822:01, Cerdulatinib (PRT062070)] | 16.29% |
| C=C(Cc1ccccc1Cl)C(=O)OCC [UM0142823:01, INF39] | 8.84% |
| CC1=C(CSC(=S)N2CCCCC2)C(=O)c2ccccc2C1=O [UM0142824:01, PKM2 inhibitor(compound 3k)] | 18.26% |
| N#Cc1cnc(Nc2cc(NC[C@H]3CNCCO3)c(C(F)(F)F)cn2)cn1 [UM0142825:01, CCT245737] | 4.036% |
| NS(=O)(=O)c1nn2cc(-c3ccccc3)nc2s1 [UM0142826:01, AEG 3482] | 8.076% |
| O=C(c1ccc(Cl)cc1)N(Cc1ccccc1)C1CCCCC1 [UM0142831:01, FPS-ZM1] | 22.08% |
| O=C(O)C1=C(CSc2nnnn2CS(=O)(=O)O)CS[C@@H]2[C@H](NC(=O)[C@H](O)c3ccccc3)C(=O)N12 [UM0142832:01, Cefonicid (sodium salt)] | 2.197% |
| Cc1cc(C)nc(NC(=S)N2CCN(Cc3ccc(C(F)(F)F)cc3)CC2)c1 [UM0142833:01, NCT-503] | 4.726% |
| O=C(CCCCCCC(=O)Nc1ccc(I)cc1)NO [UM0142835:01, 4-iodo-SAHA] | 5.197% |
| CCCCCCCCCc1ccc(B(O)O)cc1 [UM0142836:01, 4-(n-nonyl) Benzeneboronic Acid] | -0.3283% |
| Cc1snnc1-c1ccccc1 [UM0142838:01, 4-phenyl-5-methyl-1,2,3-Thiadiazole] | 0.1553% |
| CC(C)(C)C(O)/C(=C\c1ccc(Cl)cc1)n1cncn1 (stereo not shown) [UM0142839:01, Uniconazole] | 40.56% |
| CC(=O)O[C@H]1C[C@@]2(C)[C@@H](C[C@@H](O)[C@H]3[C@@]4(C)CC[C@@H](O)[C@@H](C)[C@@H]4CC[C@@]32C)/C1=C(\CCC=C(C)C)C(=O)O [UM0142840:01, Fusidic Acid (sodium salt)] | 1.888% |
| COc1cc(/C=C/CO)cc(OC)c1O[C@@H]1O[C@H](CO)[C@@H](O)[C@H](O)[C@H]1O [UM0142842:01, Syringin] | -0.4642% |
| C[C@H]1[C@H](C)CC[C@]2(C(=O)O)CC[C@]3(C)C(=CC[C@@H]4[C@@]5(C)C[C@@H](O)[C@H](O)[C@@](C)(CO)[C@@H]5CC[C@]43C)[C@H]12 [UM0142843:01, Asiatic acid] | 9.304% |
| C[C@H]1[C@H](C)CC[C@]2(C(=O)O[C@@H]3O[C@H](CO[C@@H]4O[C@H](CO)[C@@H](O[C@@H]5O[C@H](C)[C@H](O)[C@@H](O)[C@H]5O)[C@H](O)[C@H]4O)[C@@H](O)[C@H](O)[C@H]3O)CC[C@]3(C)C(=CC[C@@H]4[C@@]5(C)C[C@@H](O)[C@H](O)[C@@](C)(CO)[C@@H]5CC[C@]43C)[C@H]12 [UM0142844:01, Asiaticoside] | -0.7873% |
| O=C1C[C@@H](c2ccc(O)cc2)Oc2cc(O)cc(O)c21 [UM0142845:01, Naringenin] | 6.247% |

| Compound | Inh (PKA) |
| --- | --- |
| C=C1CC[C@@H]2[C@](C)(CO)[C@H](O)CC[C@@]2(C)[C@H]1C/C=C1\C=COC1=O [UM0142846:01, Dehydroandrographolide] | 12.37% |
| CC(C)=CCCC(C)(O)C1CCC2(C)C1C(O)CC1C3(C)CCC(O)C(C)(C)C3CCC12C (stereo not shown) [UM0142847:01, Protopanaxdiol] | 2.916% |
| OC[C@H]1NC[C@H](O)[C@@H](O)[C@@H]1O [UM0142849:01, 1-Deoxynojirimycin] | 1.08% |
| C[C@H](CCC(=O)O)[C@H]1CC[C@H]2[C@@H]3CC[C@@H]4C[C@H](O)CC[C@]4(C)[C@H]3C[C@H](O)[C@]12C [UM0142850:01, Deoxycholic acid] | 5.283% |
| O=C(O)c1cc(O)c2c(c1)[C@@H]([C@H]1c3cc(C(=O)O)cc(O)c3C(=O)c3c(O[C@@H]4O[C@H](CO)[C@@H](O)[C@H](O)[C@H]4O)cccc31)c1cccc(O[C@@H]3O[C@H](CO)[C@@H](O)[C@H](O)[C@H]3O)c1C2=O [UM0142851:01, Sennoside B] | 36.22% |
| O=C(O)c1cc(O)c2c(c1)[C@H]([C@H]1c3cc(C(=O)O)cc(O)c3C(=O)c3c(O[C@@H]4O[C@H](CO)[C@@H](O)[C@H](O)[C@H]4O)cccc31)c1cccc(O[C@@H]3O[C@H](CO)[C@@H](O)[C@H](O)[C@H]3O)c1C2=O [UM0142852:01, Sennoside A] | 33.8% |
| C[C@H]1[C@@H](O)O[C@@H]2O[C@@]3(C)CC[C@H]4[C@H](C)CC[C@@H]1[C@@]24OO3 [UM0142853:01, Dihydroartemisinin] | 0.1421% |
| CC1(C)[C@@H](O[C@H]2O[C@H](C(=O)O)[C@@H](O)[C@H](O)[C@H]2O[C@@H]2O[C@H](C(=O)O)[C@@H](O)[C@H](O)[C@H]2O)CC[C@]2(C)[C@H]3C(=O)C=C4[C@@H]5C[C@@](C)(C(=O)O)CC[C@]5(C)CC[C@@]4(C)[C@]3(C)CC[C@@H]12 [UM0142854:01, Glycyrrhizic acid] | 4.863% |
| O=C1c2c(O)cc(O)cc2O[C@H](c2ccc(O)c(O)c2)[C@H]1O [UM0142856:01, Taxifolin] | 0.9672% |
| Cc1coc2c1C(=O)C(=O)c1c-2ccc2c(C)cccc12 [UM0142857:01, Tanshinone I] | 27.32% |
| O=C1c2c(O)cc(O)cc2O[C@H](c2cc(O)c(O)c(O)c2)[C@H]1O [UM0142858:01, Dihydromyricetin] | 4.571% |
| C=C1CC[C@@H]2[C@](C)(CO)[C@H](O)CC[C@@]2(C)[C@@H]1C/C=C1/C(=O)OC[C@H]1O [UM0142859:01, Andrographolide] | 1.527% |
| COc1ccc([C@@H]2CC(=O)c3c(O)cc(O)cc3O2)cc1O [UM0142860:01, Hesperitin] | 3.061% |
| CCc1c2c(nc3ccc(O)cc13)-c1cc3c(c(=O)n1C2)COC(=O)[C@]3(O)CC [UM0142861:01, 7-Ethyl-10-hydroxycamptothecin] | 8.347% |
| O=c1cc(-c2ccc(O)c(-c3c(O)cc(O)c4c(=O)cc(-c5ccc(O)cc5)oc34)c2)oc2cc(O)cc(O)c12 [UM0142863:01, Amentoflavone] | 47.02% |
| CCCC[N+]1(C)[C@@H]2C[C@@H](OC(=O)[C@H](CO)c3ccccc3)C[C@H]1[C@@H]1O[C@@H]12 (stereo partly shown) [UM0142864:01, Scopolamine butylbromide] | 0.502% |
| Nc1ncnc2c1ncn2[C@@H]1O[C@H](CO)C[C@H]1O [UM0142866:01, Cordycepin] | -8.119% |
| Nc1ccccc1NC(=O)CCCCCCC(=O)Nc1ccccc1 [UM0142867:01, BML-210(CAY10433)] | 8.004% |
| Fc1ccc(C(c2ccc(F)cc2)N2CCN(C/C=C/c3ccccc3)CC2)cc1 [flunarizine] | 10.34% |
| C=C1C(=O)[C@]23[C@H](O)[C@H]1CC[C@H]2[C@@]12CO[C@]3(O)[C@@H](O)[C@@H]1C(C)(C)CC[C@@H]2O [oridonin] | 14.12% |
| QVPSRPNRAP [UM0141376:01, Dynamin inhibitory peptide] | 1.092% |
| VPMLK [UM0141837:01, Bax inhibitor peptide V5] | -2.196% |
